Where a name gives a salt, the structure may show the parent alone.
Key:
[1] = Stability of conjugates in Simulated Gastric Fluid (SGF); type: in vitro ADME; conditions: SGF pH 1.6 with pepsin, 37° C., 1 μM compound
Protocol: Assay 1. Stability of conjugates in Simulated Gastric Fluid (SGF). This assay was used to assess the stability of a conjugate in a stomach.
Medium was prepared by dissolving 2 g of sodium chloride in 0.6 L in ultrapure water (MilliQ®, Millipore Sigma, Darmstadt, Germany). The pH was adjusted to 1.6 with 1N hydrochloric acid, and the volume was then adjusted to 1 L with purified water.
60 mg FaSSIF powder (Biorelevant™, London, UK) were dissolved in 500 mL buffer (above). Pepsin was added (0.1 mg/mL) (Millipore Sigma, Darmstadt, Germany), and the solution was stirred. The resulting SGF media were used fresh for each experiment.
(§1) Test compounds were dissolved in DMSO stock to 1 mM. An aliquot of the DMSO stock solution was removed and diluted in the SGF Media in 15 mL falcon tubes to generate a total compound concentration of 1 μM. A 1 mL aliquot was immediately removed and diluted once with 1 volume of acetonitrile for TO timepoint. The mixture was sealed and mixed at 37° C. in an incubator. Aliquots (1 mL) were removed at regular intervals and immediately quenched by the addition of 1 volume of acetonitrile. The resulting samples were analyzed by LC/MS to determine degradation rates in SGF.

[2] = Stability of conjugates in Simulated Intestinal Fluid (SIF); type: in vitro ADME; conditions: SIF pH 6.7 with pancreatin, 37° C., 1 μM compound
Protocol: Assay 2. Stability of conjugates in Simulated Intestinal Fluid (SIF). This assay was used to assess the stability of a conjugate in a small intestine.
Phosphate buffer was prepared by dissolving 0.42 g of sodium hydroxide pellets and 3.95 g of monobasic sodium phosphate monohydrate and 6.19 g of sodium chloride in ultrapure water (MilliQ®, Millipore Sigma, Darmstadt, Germany). The pH was adjusted to 6.7 using aq. HCl and aq. NaOH, as necessary, and the solution was diluted with ultrapure water to produce 1 L of the pH 6.7 buffer.
112 mg FaSSIF powder (Biorelevant™, London, UK) was dissolved in 50 mL of the pH 6.7 buffer. 2 to 3 mL of the resulting solution were then added to 500 mg pancreatin (Millipore Sigma, Darmstadt, Germany). The resulting mixture was agitated by finger tapping the vessel containing the mixture until milky suspension formed. At this time, the remainder of the 50 mL FaSSiF/pH 6.7 buffer solution was added. The resulting suspension was flipped upside down 10 times to produce SIF, which was used fresh.
as §1, with “SIF media” for “SGF Media”, “produce” for “generate”, “mixture with a tested” for “total”, “agitated” for “mixed”, “rates” for “rates in SGF.”

[3] = In vitro Colonic Material Stability Assay; type: in vitro ADME; conditions: colonic material slurry in YCFAC media, anaerobic, 1 or 10 μM
Protocol: Assay 3. In vitro Colonic Material Stability Assay. This assay was used to assess the stability of a conjugate in a large intestine. All experiments were performed in an anaerobic chamber containing 90% nitrogen, 5% hydrogen and 5% carbon dioxide. Colonic material was resuspended as a slurry (15% w/v final concentration) in pre-reduced, anaerobically sterilized dilution blanks (Anaerobe Systems AS-908). The colonic material was then inoculated into 96 well plates containing YCFAC media (Anaerobe Systems AS-680) or other suitable media (6.7 μL slurry into 1 mL total media). Compounds or groups of compounds were added to each individual well to reach a final analyte concentration of 1 or 10 μM, and the material was mixed by pipetting. Sample was removed after set timepoints (0, 120, 240, 480, 1440, 2880 minutes after initiation of the assay), quenched with acetonitrile containing internal standard, and analyzed by LC/MS.

[4] = Gastrointestinal (GI) Exposure to Propionate (Study 1); type: in vivo, CD-1 mice; conditions: mouse; for Propionate-d3 AUClast / Propionate-d3 Tmax: single oral dose: Propionate-d3 62 mg/kg, Compound 3-d12 110 mg/kg, Compound 6-d9 91 mg/kg
Protocol: In order to measure propionate concentrations along the GI track, CD-1 mice were orally administered a single dose of deuterated sodium propionate, Compound 3 comprising deuterated propionate, or Compound 6 comprising deuterated propionate (Propionate-d3, Compound 3-d12, and Compound 6-d9, respectively; suspension, 1% (w/v) methyl cellulose in deionized water). The amounts of compound dosed were normalized to provide approximately equimolar amounts of […] (Propionate-d3 at 62 mg/kg, Compound 3-d12 at 110 mg/kg, and Compound 6-d9 at 91 mg/kg). […] Blood samples were collected in K2EDTA tubes and stored on wet ice no more than 30 min and then further processed to plasma. GI samples were placed into separate labeled, pre-weighted collection tubes and frozen before analysis. Brain samples were homogenized prior to analysis. Samples were subsequently worked up and analyzed by LC-MS/MS for deuterated propionate concentration. Propionate concentrations versus time for different tissues are depicted in FIGS. 4A-4H and 5A-5C.

Row | Compound | Assay 1 (SGF) (% Remaining @ 1 hour) [1] | Assay 2 (SIF) (% @ Remaining 4 hours) [2] | Assay 3 (% Remaining at 24 h) [3] | further results
1 | CCCC(=O)O[C@@H]1[C@@H](OC(=O)CCC)[C@@H](OC(=O)/C=C/C(=O)OC)OC[C@@H]1OC(=O)CCC [Compound 12, Methyl ((2R,3R,4S,5S)-3,4,5-tris(butyryloxy)tetrahydro-2H-pyran-2-yl) fumarate] | C (C: >75% of the tested compound remaining) | A (A: <25% of the tested compound remaining) | C (C: >75% of the tested compound remaining) | 
2 | CCC(=O)O[C@@H]1[C@@H](OC(=O)CC)[C@@H](OC(=O)/C=C/C(=O)OC)OC[C@H]1OC(=O)CC [Compound 16, Methyl ((2R,3R,4S,5R)-3,4,5-tris(propionyloxy)tetrahydro-2H-pyran-2-yl) fumarate] |  |  | C (C: >75% of the tested compound remaining) | 
3 | CCCC(=O)OC[C@H]1O[C@H](OC(=O)/C=C/C(=O)OC)[C@H](N)[C@@H](OC(=O)CCC)[C@@H]1OC(=O)CCC.Cl [Compound 28, (2R,3R,4R,5S,6R)-4,5-bis(butyryloxy)-6-((butyryloxy)methyl)-2-(((E)-4-methoxy-4-oxobut-2-enoyl)oxy)tetrahydro-2H-pyran-3-aminium Chloride] |  | B (B: 25-75% of the tested compound remaining) | B (B: 25-75% of the tested compound remaining) | 
4 | CCCC(=O)OC[C@H]1O[C@@H](OC(=O)/C=C/C(=O)OC)[C@H](OC(=O)CCC)[C@@H](OC(=O)CCC)[C@@H]1OC(=O)CCC [Compound 10, Methyl ((2S,3R,4S,5R,6R)-3,4,5-tris(butyryloxy)-6-((butyryloxy)methyl)tetrahydro-2H-pyran-2-yl) fumarate] | B (B: 25-75% of the tested compound remaining) | B (B: 25-75% of the tested compound remaining) | B (B: 25-75% of the tested compound remaining) | 
5 | [2H]C([2H])([2H])CC(=O)[O-].[Na+] [Propionate-d3, sodium propionate-d3, reference compound] |  |  |  | Propionate-d3 AUClast ([4]; Brain): below quantitative; Propionate-d3 Tmax ([4]; Brain): 15 min; Propionate-d3 AUClast ([4]; Cecum): 76 nmol·h/g; Propionate-d3 Tmax ([4]; Cecum): 15 min; Propionate-d3 AUClast ([4]; Distal Colon): 31 nmol·h/g; Propionate-d3 Tmax ([4]; Distal Colon): 15 min; Propionate-d3 AUClast ([4]; Distal Intestine): 6.6 nmol·h/g; Propionate-d3 Tmax ([4]; Distal Intestine): 30 min; Propionate-d3 AUClast ([4]; Proximal Colon): 46 nmol·h/g; Propionate-d3 Tmax ([4]; Proximal Colon): 15 min; Propionate-d3 AUClast ([4]; Proximal Intestine): 13 nmol·h/g; Propionate-d3 Tmax ([4]; Proximal Intestine): 15 min; Propionate-d3 AUClast ([4]; Stomach): 7020 nmol·h/g; Propionate-d3 Tmax ([4]; Stomach): 15 min; region where the highest concentrations (Cmax) of propionate-d3 were observed ([4]; single oral dose, GI tissues): stomach
6 | CCCC(=O)O[C@@H]1[C@@H](OC(=O)CCC)[C@H](OC(=O)/C=C/C(=O)OC)OC[C@@H]1OC(=O)CCC [Compound 36, 1-methyl (2S,3R,4S,5S)-3,4,5-tris(butanoyloxy)oxan-2-yl (2E)-but-2-enedioate] | C (C: >75% of the tested compound remaining) | A (A: <25% of the tested compound remaining) | C (C: >75% of the tested compound remaining) | 
7 | CCCC(=O)O[C@@H]1[C@@H](OC(=O)CCC)[C@H](OC(=O)/C=C/C(=O)OC)OC[C@H]1OC(=O)CCC [Compound 7, Methyl ((2S,3R,4S,5R)-3,4,5-tris(butyryloxy)tetrahydro-2H-pyran-2-yl) fumarate] | C (C: >75% of the tested compound remaining) | A (A: <25% of the tested compound remaining) | C (C: >75% of the tested compound remaining) | 
8 | COC(=O)/C=C/C(=O)Oc1cc(OC(=O)/C=C/C(=O)OC)c2c(=O)c(OC(=O)/C=C/C(=O)OC)c(-c3ccc(OC(=O)/C=C/C(=O)OC)c(OC(=O)/C=C/C(=O)OC)c3)oc2c1 [Compound 55, O4-[2-[(E)-4-methoxy-4-oxo-but-2-enoyl]oxy-4-[3,5,7-tris[[(E)-4-methoxy-4-oxo-but-2-enoyl]oxy]-4-oxo-chromen-2-yl]phenyl] O1-methyl (E)-but-2-enedioate] | C (C: >75% of the tested compound remaining) | A (A: <25% of the tested compound remaining) |  | 
9 | CCC(=O)O[C@@H]1O[C@H](COC(=O)/C=C/C(=O)OC)[C@@H](OC(=O)CC)[C@H](OC(=O)CC)[C@H]1OC(=O)CC [Compound 22, Methyl (((2R,3R,4S,5R,6S)-3,4,5,6-tetrakis(propionyloxy)tetrahydro-2H-pyran-2-yl)methyl) fumarate] | C (C: >75% of the tested compound remaining) | A (A: <25% of the tested compound remaining) |  | 
10 | CCC(=O)OC[C@H]1O[C@@H](OC(=O)/C=C/C(=O)OC)[C@H](N)[C@@H](OC(=O)CC)[C@@H]1OC(=O)CC.Cl [Compound 27, (2S,3R,4R,5S,6R)-2-(((E)-4-methoxy-4-oxobut-2-enoyl)oxy)-4,5-bis(propionyloxy)-6-((propionyloxy)methyl)tetrahydro-2H-pyran-3-aminium Chloride] |  | C (C: >75% of the tested compound remaining) | B (B: 25-75% of the tested compound remaining) | 
11 | CCC(=O)O[C@H]1[C@@H](OC(=O)CC)[C@@H](CO)O[C@H](OC(=O)/C=C/C(=O)OC)[C@@H]1OC(=O)CC [Compound 48, (2R,3R,4S,5S,6R)-6-(hydroxymethyl)-3,4,5-tris(propanoyloxy)oxan-2-yl 1-methyl (2E)-but-2-enedioate] | C (C: >75% of the tested compound remaining) | A (A: <25% of the tested compound remaining) |  | 
12 | CCCC(=O)O[C@H]1[C@@H](OC(=O)CCC)[C@@H](CO)O[C@@H](OC(=O)/C=C/C(=O)OC)[C@@H]1OC(=O)CCC [Compound 44, 1-methyl (2S,3R,4S,5S,6R)-3,4,5-tris(butanoyloxy)-6-(hydroxymethyl)oxan-2-yl (2E)-but-2-enedioate] | C (C: >75% of the tested compound remaining) | A (A: <25% of the tested compound remaining) |  | 
